Results taken from ChEMBL document CHEMBL2150945, “Synthesis and biological evaluation of novel piperazine derivatives of flavone as potent anti-inflammatory and antimicrobial agent” (2012).
Converted amounts (≈) assume the structure as drawn.

How the values were obtained:
Bacillus subtilis [1] = assay: Antibacterial activity against Bacillus subtilis MTCC 441 after 24 hrs by modified agar well diffusion method; format: functional; conditions: MTCC 441, 24 h
THP-1 [2] = assay: Antiinflammatory activity in human PMA-activated THP1 cells assessed as inhibition of LPS-induced IL6 production at 10 uM incubated for 30 mins prior to LPS-challenge measured after 24 hrs by ELISA relative to control; format: functional
Aspergillus flavus [3] = assay: Antifungal activity against Aspergillus flavus MTCC 277 after 2 to 3 days by modified agar well diffusion method; format: functional
THP-1 [4] = assay: Antiinflammatory activity in human PMA-activated THP1 cells assessed as inhibition of LPS-induced TNFalpha production at 10 uM incubated for 30 mins prior to LPS-challenge measured after 24 hrs by ELISA relative to control; format: functional
Candida albicans [5] = assay: Antifungal activity against Candida albicans MTCC 227 after 2 to 3 days by modified agar well diffusion method; format: functional
Salmonella typhimurium [6] = assay: Antibacterial activity against Salmonella typhimurium MTCC 98 after 24 hrs by modified agar well diffusion method; format: functional, Salmonella enterica subsp. enterica serovar Typhimurium; conditions: Salmonella enterica, MTCC 98, 24 h
Escherichia coli [7] = assay: Antibacterial activity against Escherichia coli MTCC 443 after 24 hrs by modified agar well diffusion method; format: functional; conditions: MTCC 443, 24 h
Fusarium solani [8] = assay: Antifungal activity against Fusarium solani MTCC 350 after 2 to 3 days by modified agar well diffusion method; format: functional
Aspergillus niger [9] = assay: Antifungal activity against Aspergillus niger MTCC 281 after 2 to 3 days by modified agar well diffusion method; format: functional
Staphylococcus aureus [10] = assay: Antibacterial activity against Staphylococcus aureus MTCC 96 after 24 hrs by modified agar well diffusion method; format: functional; conditions: MTCC 96, 24 h
Escherichia coli [11] = assay: Ratio of ciprofloxacin MIC to compound MIC for Escherichia coli MTCC 443; format: functional
Staphylococcus aureus [12] = assay: Ratio of ciprofloxacin MIC to compound MIC for Staphylococcus aureus MTCC 96; format: functional
Aspergillus niger [13] = assay: Ratio of miconazole MIC to compound MIC for Aspergillus niger MTCC 281; format: functional
Aspergillus flavus [14] = assay: Ratio of miconazole MIC to compound MIC for Aspergillus flavus MTCC 277; format: functional
Fusarium solani [15] = assay: Ratio of miconazole MIC to compound MIC for Fusarium solani MTCC 350; format: functional
Salmonella typhimurium [16] = assay: Ratio of ciprofloxacin MIC to compound MIC for Salmonella typhimurium MTCC 98; format: functional, Salmonella enterica subsp. enterica serovar Typhimurium
Candida albicans [17] = assay: Ratio of miconazole MIC to compound MIC for Candida albicans MTCC 227; format: functional
Bacillus subtilis [18] = assay: Ratio of ciprofloxacin MIC to compound MIC for Bacillus subtilis MTCC 441; format: functional

Structure (SMILES) | MIC (Bacillus subtilis [1]) [µg/mL] | inhibition at 10 µM (THP-1 [2]) [%] | MIC (Aspergillus flavus [3]) [µg/mL] | inhibition at 10 µM (THP-1 [4]) [%] | MIC (Candida albicans [5]) [µg/mL] | MIC (Salmonella typhimurium [6]) [µg/mL] | MIC (Escherichia coli [7]) [µg/mL] | MIC (Fusarium solani [8]) [µg/mL] | MIC (Aspergillus niger [9]) [µg/mL] | MIC (Staphylococcus aureus [10]) [µg/mL] | Ratio (Escherichia coli [11]) | Ratio (Staphylococcus aureus [12]) | Ratio (Aspergillus niger [13]) | Ratio (Aspergillus flavus [14]) | Ratio (Fusarium solani [15]) | Ratio (Salmonella typhimurium [16]) | Ratio (Candida albicans [17]) | Ratio (Bacillus subtilis [18])
COc1ccc2oc(N3CCN(c4ccccc4)CC3)cc(=O)c2c1 | 50 (≈ 149 µM) | 60 | 95 (≈ 282 µM) | 45 | 90 (≈ 268 µM) | 80 (≈ 238 µM) | 80 (≈ 238 µM) | 80 (≈ 238 µM) | 85 (≈ 253 µM) | 75 (≈ 223 µM) |  |  |  |  |  |  |  | 
COc1ccc2oc(N3CCN(c4ccccc4)CC3C#N)cc(=O)c2c1 (stereo not drawn) | 30 (≈ 83 µM) | 0 | 30 (≈ 83 µM) | 10 | 15 (≈ 41.5 µM) | 50 (≈ 138 µM) | 45 (≈ 125 µM) | 15 (≈ 41.5 µM) | 10 (≈ 27.7 µM) | 40 (≈ 111 µM) | 2 | 2 | 2 | 2 | 2 | 2 | 2 | 2
COc1ccc2oc(N3CCN(c4ncccn4)CC3)cc(=O)c2c1 | 65 (≈ 192 µM) | 87 | 85 (≈ 251 µM) | 82 | 85 (≈ 251 µM) | 80 (≈ 236 µM) | 80 (≈ 236 µM) | 95 (≈ 281 µM) | 70 (≈ 207 µM) | 80 (≈ 236 µM) |  |  |  |  |  |  |  | 
COc1ccc2oc(N3CCN(Cc4ccccc4)CC3)cc(=O)c2c1 | 55 (≈ 157 µM) | 0 | 65 (≈ 185 µM) | 0 | 55 (≈ 157 µM) | 65 (≈ 185 µM) | 65 (≈ 185 µM) | 45 (≈ 128 µM) | 30 (≈ 85.6 µM) | 70 (≈ 200 µM) |  |  |  |  |  |  |  | 
CCN1CCN(c2cc(=O)c3cc(OC)ccc3o2)CC1 | 80 (≈ 277 µM) | 40 | 70 (≈ 243 µM) | 30 | 75 (≈ 260 µM) |  |  | 70 (≈ 243 µM) | 60 (≈ 208 µM) | 90 (≈ 312 µM) |  |  |  |  |  |  |  | 
COc1ccc2oc(N3CCN(C)CC3)cc(=O)c2c1 | 45 (≈ 164 µM) | 35 |  | 25 | 90 (≈ 328 µM) | 65 (≈ 237 µM) | 40 (≈ 146 µM) |  | 90 (≈ 328 µM) | 50 (≈ 182 µM) |  |  |  |  |  |  |  | 
COc1ccc(N2CCN(c3cc(=O)c4cc(OC)ccc4o3)CC2)cc1 | 45 (≈ 123 µM) | 83 | 90 (≈ 246 µM) | 79 | 95 (≈ 259 µM) | 80 (≈ 218 µM) | 75 (≈ 205 µM) | 85 (≈ 232 µM) | 75 (≈ 205 µM) | 60 (≈ 164 µM) |  |  |  |  |  |  |  | 
COc1ccc2oc(NCCN3CCCC3)cc(=O)c2c1 | 10 (≈ 34.7 µM) | 20 | 15 (≈ 52 µM) | 5 | 10 (≈ 34.7 µM) | 10 (≈ 34.7 µM) | 15 (≈ 52 µM) | 10 (≈ 34.7 µM) | 10 (≈ 34.7 µM) | 20 (≈ 69.4 µM) | 2 | 2 | 2 | 2 | 2 | 2 | 2 | 2
COc1cc(OC)c2c(=O)cc(CN3CCN(c4ccccc4)CC3)oc2c1 | 90 (≈ 237 µM) | 50 | 85 (≈ 223 µM) | 45 | 80 (≈ 210 µM) | 90 (≈ 237 µM) | 90 (≈ 237 µM) | 95 (≈ 250 µM) | 90 (≈ 237 µM) | 90 (≈ 237 µM) |  |  |  |  |  |  |  | 
COc1ccc(N2CCN(Cc3cc(=O)c4c(OC)cc(OC)cc4o3)CC2)cc1 | 40 (≈ 97.4 µM) | 93 | 85 (≈ 207 µM) | 85 | 95 (≈ 231 µM) | 65 (≈ 158 µM) | 70 (≈ 171 µM) | 75 (≈ 183 µM) | 80 (≈ 195 µM) | 65 (≈ 158 µM) |  |  |  |  |  |  |  | 
COc1cc(OC)c2c(=O)cc(CN3CCN(c4ccccn4)CC3)oc2c1 | 85 (≈ 223 µM) | 70 | 95 (≈ 249 µM) | 65 | 85 (≈ 223 µM) |  |  | 90 (≈ 236 µM) | 95 (≈ 249 µM) |  |  |  |  |  |  |  |  | 
COc1cc(OC)c2c(=O)cc(CN3CCN(c4ncccn4)CC3)oc2c1 |  | 93 | 95 (≈ 248 µM) | 87 | 90 (≈ 235 µM) | 90 (≈ 235 µM) | 90 (≈ 235 µM) | 65 (≈ 170 µM) | 75 (≈ 196 µM) |  |  |  |  |  |  |  |  | 
COc1cc(OC)c2c(=O)cc(CN3CCN(C(C)=O)CC3)oc2c1 | 60 (≈ 173 µM) | 0 | 90 (≈ 260 µM) | 0 | 75 (≈ 217 µM) | 90 (≈ 260 µM) | 95 (≈ 274 µM) | 85 (≈ 245 µM) | 60 (≈ 173 µM) | 80 (≈ 231 µM) |  |  |  |  |  |  |  | 
COc1cc(OC)c2c(=O)cc(CN3CCN(C)CC3)oc2c1 | 45 (≈ 141 µM) | 0 | 75 (≈ 236 µM) | 10 | 70 (≈ 220 µM) | 90 (≈ 283 µM) | 90 (≈ 283 µM) | 75 (≈ 236 µM) | 55 (≈ 173 µM) | 60 (≈ 188 µM) |  |  |  |  |  |  |  | 
CCN1CCN(Cc2cc(=O)c3c(OC)cc(OC)cc3o2)CC1 | 65 (≈ 196 µM) | 30 | 60 (≈ 181 µM) | 20 | 55 (≈ 165 µM) | 70 (≈ 211 µM) | 70 (≈ 211 µM) | 45 (≈ 135 µM) | 35 (≈ 105 µM) | 75 (≈ 226 µM) |  |  |  |  |  |  |  | 
COc1cc(OC)c2c(=O)cc(CN3CCOCC3)oc2c1 | 90 (≈ 295 µM) | 91 | 90 (≈ 295 µM) | 85 | 85 (≈ 278 µM) |  |  | 85 (≈ 278 µM) | 80 (≈ 262 µM) |  |  |  |  |  |  |  |  | 
COc1cc(OC)c2c(=O)cc(CN3CCN(C/C=C/c4ccccc4)CC3)oc2c1 | 10 (≈ 23.8 µM) | 25 |  | 10 | 90 (≈ 214 µM) | 10 (≈ 23.8 µM) | 15 (≈ 35.7 µM) |  |  | 20 (≈ 47.6 µM) | 2 | 2 | 2 | 2 | 2 | 2 | 2 | 2
COc1ccc2oc(N3CCOCC3)cc(=O)c2c1 | 75 (≈ 287 µM) | 84 |  | 80 |  | 90 (≈ 344 µM) | 90 (≈ 344 µM) |  | 90 (≈ 344 µM) | 95 (≈ 364 µM) |  |  |  |  |  |  |  | 
O=C(O)c1cn(C2CC2)c2cc(N3CCNCC3)c(F)cc2c1=O [CIPROFLOXACIN] | 25 (≈ 75.4 µM) |  |  |  |  | 25 (≈ 75.4 µM) | 15 (≈ 45.3 µM) |  |  |  |  |  |  |  |  |  |  | 
Clc1ccc(COC(Cn2ccnc2)c2ccc(Cl)cc2Cl)c(Cl)c1 (stereo not drawn) [MICONAZOLE] |  |  | 20 (≈ 48.1 µM) |  | 25 (≈ 60.1 µM) |  |  | 15 (≈ 36 µM) | 20 (≈ 48.1 µM) |  |  |  |  |  |  |  |  | 
